Test results taken from patent publication US10300151B2, “Methods and systems for noninvasive fluorescence-based functional imaging of kidneys” (Board of Regents, The University of Texas System, priority 2015, dated 2019).
Entries after “also recorded” stand apart in the source; their conditions may differ.

Columns and labels:
[1] = test system: kidneys of Balb/c mice; test: Noninvasive whole-body fluorescence kidney imaging of intact mice after i.v. injection of fluorophore; assay type: in vivo, mouse; conditions: for excretion route: fluorescence from bladder at 65 min / intestines after 10 min p.i.; for skin clearance half-life: observed during 60 min p.i.; for fraction of first phase of skin intensity increase / fraction of second phase of skin intensity increase / skin fluorescence intensity increase half-life, first phase / skin fluorescence intensity increase half-life, second phase: two-phase exponential growth, FIG. 10; for duration of kidney contrast/visualisation in noninvasive imaging: after i.v. injection
Procedure: Invasive and noninvasive imaging of normal mice, UUO mice and sham mice were performed using the following protocol. The protocol for invasive and noninvasive imaging differed in only in that for invasive imaging, the mouse's kidneys are exposed via removal of the mouse's back skin.
Prior to imaging, hair-removed Balb/c mice were anesthetized using 3% isoflurane. A catheter filled with PBS was inserted into each mouse's tail vein. The mouse, along with its tail vein catheter, was placed in supine position on the stage of fluorescence imaging system, with the mouse's back facing the excitation light and charge-coupled device (CCD) camera.
Fluorescence imaging of the each of mice proceeded as follows. Bright-field and fluorescence images of the each mouse was taken before injection with fluorophores. When its breathing rate decreased to 10-14 times per 15 s, the mouse was injected with 200 μL of a fluorophore solution. The fluorophore solutions used were PBS solutions of either an organic dye (Cy3, Cy7, or IRDye 800CW) or GS-AuNPs. The concentrations of Cy3, Cy7 and IRDye 800CW were 100, 10, and 10 μM, respectively, and these solutions were filtered through a 0.02 μm filter before injection. The solution of NIR-emitting GS-AuNPs contained 10 mg/mL gold atom as determined by inductively coupled plasma mass spectrometry (ICP-MS). Once the designated fluorophore solution was injected, whole body fluorescence images of each mouse were collected consecutively until 60 minutes post-injection. To ensure reproducible results, each mouse's anesthesia status was maintained at constant level before injection of fluorophores. Unlike clinical renographic procedures, no diuretic agents were used, and the animals were not hydrated prior to fluorescence imaging.
The parameters for acquiring the fluorescence images were shown as follows: Cy3, excitation at 550/10 nm, emission at 600/20 nm, exposure time of 2 s, no binning (FIGS. 4, 6, and 7); Cy7, excitation of 710/10 nm, emission of 790/20 nm, exposure time of 5 s, 2×2 binning (FIGS. 5, 8, and 9); IRDye 800CW, excitation of 710/10 nm, emission of 790/20 nm, 2×2 binning, exposure time of 5 s (FIGS. 21 and 55); GS-AuNPs, excitation of 710/10 nm, emission of 830/20 nm; exposure time of 30 s, 2×2 binning (FIGS. 24, 36, and 54).
Regions of interest (ROIs) designated “kidney areas” were defined around the left and right kidneys on the fluorescence image showing high kidney intensity. Four ROIs designated “surrounding tissue areas” were drawn in proximity to the each kidney; the mean values of these four ROIs were considered the “mean intensity of surrounding tissue area” for the respective kidney. The percentage of kidney contrast enhancement was calculated as follows:
[formula] For GS-AuNPs, the ROIs of “skin” were chosen from the back area close to the tail, so as to avoid the influence of bright kidneys. The time-dependent fluorescence intensity of skin (or kidneys) and percentage of kidney contrast enhancement (FIGS. 10-14, 22, 23, 25, 26, 37, 56, and 57). The curves were fitted with exponential functions to generate the kinetics of kidney contrast change or the kinetics of accumulation and clearance of the fluorophores in the skin and kidneys (FIGS. 10, 22, and 23). Deconvolution and parametric analysis of the kidney TFICs were performed using Origin 8 (FIGS. 27-35; Tables 1 and 2). Pathological Analysis

[2] = test system: kidneys of Balb/c mice; test: Invasive fluorescence kidney imaging of skin-removed mice after i.v. injection of fluorophore; assay type: in vivo, mouse; conditions: for time at which skin fluorescence intensity surpasses left and right kidney intensity: kidneys surgically exposed; for time of maximum skin fluorescence intensity: FIG. 26 (Cy7: FIG. 10); for peak skin fluorescence intensity as percentage of maximum kidney fluorescence intensity: kidney fluorescence from invasive imaging data, FIG. 26
Procedure: Invasive and noninvasive imaging of normal mice, UUO mice and sham mice were performed using the following protocol. The protocol for invasive and noninvasive imaging differed in only in that for invasive imaging, the mouse's kidneys are exposed via removal of the mouse's back skin. […] As shown in panel a, the kidneys are paired bean-shaped organs lying on either side of the vertebral column. The right kidney (RK) of a mouse is usually slightly higher than it left kidney (LK). Since the kidneys locate retroperitoneally against the dorsal body wall, LK (shown in panel b) and RK (shown in panel c) can be exposed once the back skin above the kidneys was removed. The interference of skin on kidney imaging can be avoided in such an invasive way. Prior to imaging, hair-removed Balb/c mice were anesthetized using 3% isoflurane. A catheter filled with PBS was inserted into each mouse's tail vein. The mouse, along with its tail vein catheter, was placed in supine position on the stage of fluorescence imaging system, with the mouse's back facing the excitation light and charge-coupled device (CCD) camera. Fluorescence imaging of the each of mice proceeded as follows. Bright-field and fluorescence images of the each mouse was taken before injection with fluorophores. When its breathing rate decreased to 10-14 times per 15 s, the mouse was injected with 200 μL of a fluorophore solution. The fluorophore solutions used were PBS solutions of either an organic dye (Cy3, Cy7, or IRDye 800CW) or GS-AuNPs. The concentrations of Cy3, Cy7 and IRDye 800CW were 100, 10, and 10 μM, respectively, and these solutions were filtered through a 0.02 μm filter before injection. The solution of NIR-emitting GS-AuNPs contained 10 mg/mL gold atom as determined by inductively coupled plasma mass spectrometry (ICP-MS). Once the designated fluorophore solution was injected, whole body fluorescence images of each mouse were collected consecutively until 60 minutes post-injection. To ensure reproducible results, each mouse's anesthesia status was maintained at constant level before injection of fluorophores. Unlike clinical renographic procedures, no diuretic agents were used, and the animals were not hydrated prior to fluorescence imaging. The parameters for acquiring the fluorescence images were shown as follows: Cy3, excitation at 550/10 nm, emission at 600/20 nm, exposure time of 2 s, no binning (FIGS. 4, 6, and 7); Cy7, excitation of 710/10 nm, emission of 790/20 nm, exposure time of 5 s, 2×2 binning (FIGS. 5, 8, and 9); IRDye 800CW, excitation of 710/10 nm, emission of 790/20 nm, 2×2 binning, exposure time of 5 s (FIGS. 21 and 55); GS-AuNPs, excitation of 710/10 nm, emission of 830/20 nm; exposure time of 30 s, 2×2 binning (FIGS. 24, 36, and 54). Regions of interest (ROIs) designated “kidney areas” were defined around the left and right kidneys on the fluorescence image showing high kidney intensity. Four ROIs designated “surrounding tissue areas” were drawn in proximity to the each kidney; the mean values of these four ROIs were considered the “mean intensity of surrounding tissue area” for the respective kidney. The percentage of kidney contrast enhancement was calculated as follows: [formula] For GS-AuNPs, the ROIs of “skin” were chosen from the back area close to the tail, so as to avoid the influence of bright kidneys. The time-dependent fluorescence intensity of skin (or kidneys) and percentage of kidney contrast enhancement (FIGS. 10-14, 22, 23, 25, 26, 37, 56, and 57). The curves were fitted with exponential functions to generate the kinetics of kidney contrast change or the kinetics of accumulation and clearance of the fluorophores in the skin and kidneys (FIGS. 10, 22, and 23). Deconvolution and parametric analysis of the kidney TFICs were performed using Origin 8 (FIGS. 27-35; Tables 1 and 2). Pathological Analysis

[3] = in mice, blood; cited from earlier work
[4] = test system: kidneys of UUO mice; test: Noninvasive fluorescence renography in unilateral ureter obstruction (UUO) and sham mice; assay type: in vivo, mouse
Excerpt: To obtain unilateral […] obstruction (UUO) mice, male Balb/c mice (6-8 weeks old, with about 20 g) were anesthetized with isoflurane. For each mouse, the left kidney was exposed an incision on the left flank, and the left ureter was obstructed completely near the renal pelvis using a nonabsorbable suture. For mice in the sham group, the left ureter was exposed using the same surgical procedure but ureter ligation was not performed. Female Balb/c mice (8-10 weeks old, weighing about 20 g) were used as normal (non-UUO) mice for other experiments, such as those shown in FIGS. 4-19. The hair on the Balb/c mice was removed using hair removal lotion at least 24 h before the imaging experiments.
Fluorescence imaging of the each of mice proceeded as follows. Bright-field and fluorescence images of the each mouse was taken before injection with fluorophores. […] The solution of NIR-emitting GS-AuNPs contained 10 mg/mL gold atom as determined by inductively coupled plasma mass spectrometry (ICP-MS). Once the designated fluorophore solution was injected, whole body fluorescence images of each mouse were collected consecutively until 60 minutes post-injection. […] Unlike clinical renographic procedures, no diuretic agents were used, and the animals were not hydrated prior to fluorescence imaging. […]

[5] = 0.6 min p.i., noninvasive, N=3, mean±s.d.
[6] = 60 min p.i., noninvasive, N=3, mean±s.d.
[7] = noninvasive, single exponential decay

CCN1C(=CC=CC2=[N+](CCCCCC(=O)O)c3ccc(S(=O)(=O)O)cc3C2(C)C)C(C)(C)c2cc(S(=O)(=O)[O-])ccc21 [Cy3, disulfo-Cy3 carboxylic acid]
excretion route [1]: can be excreted into urine through renal clearance
contrast enhancement of noninvasively imaged mouse kidney ([1]; intact mouse, Ex/Em 550/600 nm): failed to enhance contrast
skin clearance half-life [1]: 56.5 min
fraction of first phase of skin intensity increase [1]: 18.1%
fraction of second phase of skin intensity increase [1]: 81.9%
skin fluorescence intensity increase half-life, first phase [1]: 0.2 min
skin fluorescence intensity increase half-life, second phase [1]: 2.8 min
time at which skin fluorescence intensity surpasses left and right kidney intensity ([2]; invasive imaging): 1.5 min p.i.

CCN1C(=CC=CC=CC=CC2=[N+](CCCCCC(=O)O)c3ccc(S(=O)(=O)O)cc3C2(C)C)C(C)(C)c2cc(S(=O)(=O)[O-])ccc21 [Cy7, disulfo-Cy7 carboxylic acid]
duration of kidney contrast/visualisation in noninvasive imaging ([1]; intact mouse): less than 10 min
excretion route [1]: can be excreted into urine through renal clearance; also recorded: can also be excreted through a hepatic route
skin clearance half-life [1]: No clearance of Cy7 from the skin was observed during 60 min p.i.
fraction of first phase of skin intensity increase [1]: 33.5%
fraction of second phase of skin intensity increase [1]: 66.5%
skin fluorescence intensity increase half-life, first phase [1]: 1.5 min
skin fluorescence intensity increase half-life, second phase [1]: 7.4 min
time of maximum skin fluorescence intensity [2]: 35 min p.i.
time at which skin fluorescence intensity surpasses left and right kidney intensity ([2]; invasive imaging): 13.2 min p.i.
peak skin fluorescence intensity as percentage of maximum kidney fluorescence intensity [2]: 95.3%

CC1(C)C(/C=C/C2=C(Oc3ccc(S(=O)(=O)O)cc3)C(=C/C=C3/N(CCCCS(=O)(=O)O)c4ccc(S(=O)(=O)[O-])cc4C3(C)C)/CCC2)=[N+](CCCCCC(=O)O)c2ccc(S(=O)(=O)O)cc21 [IRDye 800CW, IRDye 800CW carboxylate]
percentage contrast enhancement of left kidney (LK) [1, 5]: 67.6±7.1%
percentage contrast enhancement of right kidney (RK) [1, 5]: 49.9±9.0%
percentage of contrast enhancement, LK [1, 6]: −4.7±0.8%
percentage of contrast enhancement, RK [1, 6]: −4.8±5.1%
duration of kidney contrast/visualisation in noninvasive imaging ([1]; intact mouse): less than 5 min
time at which skin fluorescence intensity is halfway to saturation ([1]; noninvasive imaging, FIG. 22): 4.1 min
decay half-life of percentage contrast enhancement, LK [1, 7]: 4.2 min
decay half-life of percentage contrast enhancement, RK [1, 7]: 4.5 min
elimination half-life (t1/2β) [3]: 58.8 ± 4.8 min
time-dependent intensity curves in sham vs UUO mice ([4]; LK, RK and skin, FIGS. 56-57): very similar profiles of time-dependent intensity curve in sham and UUO mice
visibility of kidneys in UUO mouse ([4]; noninvasive imaging, UUO mouse): both UUO LK and RK disappeared after 5 min p.i.
time of maximum skin fluorescence intensity [2]: 25 min p.i.
clearance half-life from kidney, LK, first component ([2]; invasive imaging, FIG. 23): 4.3 min
clearance half-life from kidney, LK, second component ([2]; invasive imaging, FIG. 23): 28.0 min
clearance half-life from kidney, RK, first component ([2]; invasive imaging, FIG. 23): 4.7 min
clearance half-life from kidney, RK, second component ([2]; invasive imaging, FIG. 23): 18.9 min
fraction of first clearance component, LK ([2]; invasive imaging, FIG. 23): 50.1%
fraction of first clearance component, RK ([2]; invasive imaging, FIG. 23): 46.0%
fraction of second clearance component, LK ([2]; invasive imaging, FIG. 23): 49.9%
fraction of second clearance component, RK ([2]; invasive imaging, FIG. 23): 54.0%
peak skin fluorescence intensity as percentage of maximum kidney fluorescence intensity [2]: 75.5±9.3%
